Laboratory results: patent US12485191B2, “Radiopharmaceuticals and methods of use thereof” (BOARD OF REGENTS OF THE UNIVERSITY OF NEBRASKA, priority 2017, dated 2025)
Marks after values point to notes of the source that are not given here.

Columns and labels:
[1] = target: T1, cathepsin B (human Liver) (Homo sapiens, UniProt P07858); test: Inhibition constant (Ki) of the compounds to cathepsin B; assay type: biochemical
T1 construct: from tissue; host or cells: human liver
Procedure: Determination of the Km and Vmax of Cathepsin B for Z-Arg-Arg-AMC
The solution of cathepsin B (human Liver) (50 μL, 2 nM) in assay buffer used above was mixed with 50 μL of solution of substrate Z-Arg-Arg-AMC in the assay buffer at different concentrations ([S]) (25 μM, 50 μM, 100 μM, 500 μM and 1 mM). The mixture was incubated at 37° C. and the fluorescence of the liberated aminomethylcoumarin at 460 nM using 355 nm excitation was measured at predetermined time points (0, 2, 4, 6, 8, and 10 minutes). The fluorescence intensity was plotted versus time and the reaction rates (v0) were calculated as the slope of the trend lines obtained by liner regression. Km and maximum reaction rate (Vmax-obs) was determined from the equation v0=Vmax[S]/(Km+[S]) and solved by nonlinear regression using GraphPad Prism 5. All measurements were in biological triplicate.
Determination of the Inhibition Constant (Ki) of the Compounds to Cathepsin B
The cathepsin B (human Liver) in assay buffer (25 μL) was mixed with the conjugate (25 μL) in 96-well plate. After the solution was mixed, the Z-Arg-Arg-AMC in assay buffer (50 μL) was added to the well, yielding a final cathepsin B concentration of 1 nM, conjugate concentration ([C]) of 15 nM or 5 μM, and substrate concentration ([S]) of 25 μM, 50 μM, 100 μM, 500 μM and 1 mM. The mixture was incubated at 37° C. and the fluorescence of the liberated aminomethylcoumarin at 460 nM using 355 nm excitation was measured at predetermined time points (0, 2, 4, 6, 8, and 10 minutes). The fluorescence intensity was plotted versus time with observed reaction rates (v0-obs) calculated as the slope of the trend lines obtained by liner regression. The observed rate constant (Kobs) and observed maximum reaction rate (Vmax-obs) was determined from the equation v0-obs=Vmax-obs [S]/(Kobs+[S]) and solved by nonlinear regression using GraphPad Prism 5. The Ki was calculated from the equation Kobs=Km (1+[C]/Ki). All measurements were in biological triplicate.

[2] = Distribution coefficient (Log D7.4) of the conjugates; assay type: physicochemical; settings: determined by HPLC analysis
HT-29 cells [3] = test: HT-29 cell efflux study; assay type: cell-based, human; settings: at 24 hours
Procedure: The HT-29 Cell Efflux Studies
The ^177Lu radioconjugate was added to a sterilized 1.5 mL microcentrifuge tube containing HT-29 cells ˜1×10^6) suspended in 300 μL of cell culture medium, yielding a final radioactivity concentration of 100,000 cpm/100 μL, and was incubated for 2 hours at 37° C. After the removal of the culture medium, the cells were washed with fresh medium (5×500 μL) followed by the addition of 500 μL of fresh medium for the efflux assay. At 0, 1, 2, 4, 8, and 24 hour time interval, fresh medium (500 μL) was added to the tube to replace the old medium which was harvested for quantitative analysis of the effluxed radioactivity using a gamma counter. The cells were lysed with a 10% aqueous SDS solution at 24 hour to quantify the remaining internalized radioactivity. The effluxed fraction is expressed as a percentage of the total radioactivity added to the tube, which is the sum of the effluxed and internalized fractions obtained from the study.

HT-29 cells [4] = test: Intracellular trapping of the radioconjugates in living HT-29 cells (GPC, SDS-PAGE); assay type: cell-based, human; settings: for intracellular adduct formation (in words): live HT-29 cells, GPC and SDS-PAGE
Procedure: Intracellular Trapping of the Radioconjugates in Living HT-29 Cells
To the HT-29 cells (1×10^6/well) seeded in 6-well plates was added the radioconjugates (0.74 MBq, 20 μCi) in 1 mL of cell culture medium. The cells were incubated at 37° C. for 4 hours and the medium was removed by vacuum followed washing with PBS (2×2 mL). The cells (˜3×10^6) were trypsinized and combined in microcentrifuge. The RIPA buffer (100 μL) containing Halttmprotease inhibitor (100×, 1 μL) was added to the cell pellet and vigorously vortexed for 1 minute. The suspension was incubated on ice for 15 minutes and centrifuged to remove the pellet. The supernatant (80 μL) was equally divided into two portions. The first portion (40 μL) was directly analyzed by radioactive-GPC with a flow rate of 0.6 mL/minute (40% ACN in PBS containing 0.1% sodium azide). The second portion (40 μL) of the cell lysate was mixed with Novex Tris-Glycine SDS sample buffer (2×) (40 μL) and incubated for another 15 minutes. The mixture (30 μL) was loaded onto a Novex 16% tris-glycine gel and analyzed by SDS-PAGE at 110 V for 90 minutes. The autoradiograph of the SDS-PAGE was performed as described above.

[5] = target: T1, cathepsin B (human Liver); test: Cathepsin B binding of the radioconjugates (autoradiographic SDS-PAGE); settings: 2 hours
Procedure: Cathepsin B Binding of the Radioconjugates This procedure uses the same solutions as described above. The cathepsin B (human Liver)(3 nM, 10 μL) in storing buffer was added to the solution of the radioconjugate (500,000 cpm) in 40 μL of binding assay buffer and kept on ice for 2 hours. An aliquot (25 μL) of the solution was mixed with Novex Tris-Glycine SDS sample buffer (2×) (25 μL) and incubated for a further 10 minutes. The mixtures (20 μL) were loaded onto a Novex 16% tris-glycine gel and analyzed by SDS-PAGE at 110 V for 90 minutes. The autoradiograph of the SDS-PAGE was performed as described above.

[6] = Distribution coefficient (Log D7.4) of the conjugates; assay type: physicochemical
Procedure: Distribution Coefficient (Log D7.4) of the Conjugates The distribution coefficient was determined for each ^177Lu-labeled conjugate. In a 1.5 mL centrifuge tube, 0.5 mL of 1-octanol was added to 0.5 mL of PBS (pH 7.4) containing the radiolabeled peptide (500,000 cpm). The solution was vigorously vortexed for 2 minutes at room temperature and subsequently centrifuged to yield two immiscible layers. The radioactivity of the aliquots (100 μL) taken from each layer were quantified by the gamma counter and the Log D7.4 for each conjugates was calculated.

CatB = CatB (Homo sapiens, UniProt P07858); test: CatB inhibition of GRPR-targeted agents; assay type: biochemical
Procedure: The Inhibition of Cathepsin B Activity by the Conjugates The phosphate buffer (0.1 M, pH=5.8) containing EDTA (1 mM), DTT (2.7 mM), and Brij®35 (0.03%) was prepared before the assay. […] The solution of cathepsin B (human Liver) in assay buffer (50 μL, 0.544 nM) was added to the mixture which was further incubated at 37° C. for 20 minutes. The fluorescence of the liberated aminomethylcoumarin at 460 nM using 355 nm excitation was measured and the IC50 of the cathepsin B inhibition versus the samples without the inhibitor was determined by nonlinear regression using GraphPad Prism 5.

PC-3 cells [7] = test: Efflux study in PC-3 cells; assay type: cell-based, human; settings: over a 24 hour time period
PC-3 cells [8] = test: Cellular adduct study (SDS-PAGE of cellular lysates); assay type: cell-based, human
PC-3 tumor [9] = test: Autoradiography of SDS-PAGE of tissue lysates from PC-3 tumor bearing mice; assay type: in vivo; settings: liver, pancreas, kidney at 24 and 72 hours post-injection
PC-3 tumor [10] = settings: mouse, in vivo

| Structure (SMILES) | logD7.4 [2] | CatB K1 [1] | efflux (HT-29 cells [3]) [%] | intracellular adduct formation (in words) (HT-29 cells [4]) | logD7.4 ([6]; GRPR-targeted agents) | inhibition of catB (in words) (CatB) | reduction in efflux compared to the analogous control (PC-3 cells [7]) [%] | cellular adducts (in words) (PC-3 cells [8]) | adduct formation in tissue lysates (in words) (PC-3 tumor [9]) | tumor retention (PC-3 tumor [10]) [%] | also measured |
| --- | --- | --- | --- | --- | --- | --- | --- | --- | --- | --- | --- |
| Cc1cc(C)c(C(=O)OCC(=O)[C@H](CCCCN)NC(=O)[C@H](Cc2ccccc2)NC(=O)OCc2ccccc2)c(C)c1 [Compound 1a] | 2.08 ± 0.08^a |  |  |  |  |  |  |  |  |  | Ki ([1]; read-out: CatB K1): 23 ± 1 nM |
| NCCCCC(NC(=O)C(Cc1ccccc1)NC(=O)OCc1ccccc1)C(=O)NCCc1ccccc1 (stereo not shown) [Compound 1b] | 2.51 ± 0.02^a | ni^c |  |  |  |  |  |  |  |  |  |
| Cc1cc(C)c(C(=O)OCC(=O)[C@H](CCCCNC(=O)COCCOCCOCCn2cc(C[C@H](NC(=O)CN3CCN(CC(=O)O)CCN(CC(=O)O)CCN(CC(=O)O)CC3)C(=O)NCCC(=O)N[C@@H](CCCCN)C(=O)N3CCC[C@H]3C(=O)N(C)[C@@H](CCCNC(=N)N)C(=O)N[C@@H](CCCNC(=N)N)C(=O)N3CCC[C@H]3C(=O)N[C@@H](Cc3c(C)cc(O)cc3C)C(=O)N[C@H](C(=O)N[C@@H](CC(C)C)C(=O)O)C(C)(C)C)nn2)NC(=O)[C@H](Cc2ccccc2)NC(=O)OCc2ccccc2)c(C)c1 [Compound 2c] |  |  | 36 | multiple macromolecule adducts formed |  |  |  |  |  |  | percentage of macromolecular adducts with respect to total intracellular activity (HT-29 cells [4]; GPC profile, HT-29 cells, 4 hours incubation): 61%; adduct formation with CatB (in words) [5]: adduct formation |
| Cc1cc(O)cc(C)c1C[C@H](NC(=O)[C@@H]1CCCN1C(=O)[C@H](CCCNC(=N)N)NC(=O)[C@H](CCCNC(=N)N)N(C)C(=O)[C@@H]1CCCN1C(=O)[C@H](CCCCN)NC(=O)CCNC(=O)[C@H](Cc1cn(CCOCCOCCOCC(=O)NCCCC[C@H](NC(=O)[C@H](Cc2ccccc2)NC(=O)OCc2ccccc2)C(=O)NCCc2ccccc2)nn1)NC(=O)CN1CCN(CC(=O)O)CCN(CC(=O)O)CCN(CC(=O)O)CC1)C(=O)N[C@H](C(=O)N[C@@H](CC(C)C)C(=O)O)C(C)(C)C [Compound 3a] |  | ni | 66 | no adduct formation |  |  |  |  |  |  | logD7.4 ([6]; determined by radiometric analysis, 177Lu-labeled conjugate): −1.56 ± 0.07^b; Ki and inhibition IC50 to CatB (in words) [1]: did not demonstrate any inhibition |
| CSCC[C@H](NC(=O)[C@H](CC(C)C)NC(=O)[C@H](Cc1c[nH]cn1)NC(=O)CNC(=O)[C@@H](NC(=O)[C@H](C)NC(=O)[C@H](Cc1c[nH]c2ccccc12)NC(=O)[C@H](CCC(N)=O)NC(=O)CCOCCOCCOCCOCCNC(=O)[C@H](Cc1cn(CCNC(=O)[C@H](CCCNC(=N)N)NC(=O)[C@H](CC(C)C)NC(=O)C2OC2C(=O)O)nn1)NC(=O)CN1CCN(CC(=O)O)CCN(CC(=O)O)CCN(CC(=O)O)CC1)C(C)C)C(N)=O (stereo partly shown) [^177Lu-A-AG, metal not drawn] |  |  |  |  | −3.1 ± 0.1 | low nanomolar inhibition | ~20 | cellular adducts are observed | formation of adducts | 62 |  |
| CC(C)C[C@H](NC(=O)C1OC1C(=O)O)C(=O)N[C@@H](CCCNC(=N)N)C(=O)NCCn1cc(C[C@H](NC(=O)CN2CCN(CC(=O)O)CCN(CC(=O)O)CCN(CC(=O)O)CC2)C(=O)NCCOCCOCCOCCOCCC(=O)N[C@H](Cc2ccccc2)C(=O)N[C@@H](CCC(N)=O)C(=O)N[C@@H](Cc2c[nH]c3ccccc23)C(=O)N[C@@H](C)C(=O)N[C@H](C(=O)NCC(=O)N[C@@H](Cc2c[nH]cn2)C(=O)N[C@@H](CC(C)C)[C@@H](O)CC(=O)N[C@H](CC(C)C)C(N)=O)C(C)C)nn1 (stereo partly shown) [^177Lu-A-ANT, metal not drawn] |  |  |  |  | −2.3 ± 0.2 | low nanomolar inhibition | 5 | cellular adducts are observed | formation of adducts | 32 |  |
